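A five-concentration, 48-hour dose response in 96-well plates underlies each endpoint, interpolated linearly between surrounding concentrations. TGI marks complete inhibition of growth.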
How the values were obtained:
Test in all cases: inhibition of tumour cell growth, NCI panel, 48 h
786-0 renal = tested on: 786-0 renal
A498 renal = tested on: A498 renal
A549 NSCLC = tested on: A549 NSCLC
ACHN renal = tested on: ACHN renal
BT-549 breast = tested on: BT-549 breast
CAKI-1 renal = tested on: CAKI-1 renal
CCRF-CEM leukemia = tested on: CCRF-CEM leukemia
COLO 205 colon = tested on: COLO 205 colon
DU-145 prostate = tested on: DU-145 prostate
EKVX NSCLC = tested on: EKVX NSCLC
HCC-2998 colon = tested on: HCC-2998 colon
HCT-116 colon = tested on: HCT-116 colon
HCT-15 colon = tested on: HCT-15 colon
HOP-62 NSCLC = tested on: HOP-62 NSCLC
HOP-92 NSCLC = tested on: HOP-92 NSCLC
HS 578T breast = tested on: HS 578T breast
HT29 colon = tested on: HT29 colon
IGROV1 ovarian = tested on: IGROV1 ovarian
K-562 leukemia = tested on: K-562 leukemia
KM12 colon = tested on: KM12 colon
LOX IMVI melanoma = tested on: LOX IMVI melanoma
M14 melanoma = tested on: M14 melanoma
MALME-3M melanoma = tested on: MALME-3M melanoma
MCF7 breast = tested on: MCF7 breast
MDA-MB-231 breast = tested on: MDA-MB-231 breast
MDA-MB-435 = tested on: MDA-MB-435
MDA-N = tested on: MDA-N
MOLT-4 leukemia = tested on: MOLT-4 leukemia
NCI-H226 lung = tested on: NCI-H226 lung
NCI-H23 lung = tested on: NCI-H23 lung
NCI-H460 lung = tested on: NCI-H460 lung
NCI/ADR-RES ovarian = tested on: NCI/ADR-RES ovarian
OVCAR-3 ovarian = tested on: OVCAR-3 ovarian
OVCAR-4 ovarian = tested on: OVCAR-4 ovarian
OVCAR-5 ovarian = tested on: OVCAR-5 ovarian
OVCAR-8 ovarian = tested on: OVCAR-8 ovarian
PC-3 prostate = tested on: PC-3 prostate
SF-295 CNS = tested on: SF-295 CNS
SF-539 CNS = tested on: SF-539 CNS
SK-MEL-2 melanoma = tested on: SK-MEL-2 melanoma
SK-MEL-28 melanoma = tested on: SK-MEL-28 melanoma
SK-MEL-5 melanoma = tested on: SK-MEL-5 melanoma
SN12C renal = tested on: SN12C renal
SNB-19 CNS = tested on: SNB-19 CNS
SNB-75 CNS = tested on: SNB-75 CNS
SR leukemia = tested on: SR leukemia
SW-620 colon = tested on: SW-620 colon
T-47D breast = tested on: T-47D breast
TK-10 renal = tested on: TK-10 renal
U251 CNS = tested on: U251 CNS
UACC-257 melanoma = tested on: UACC-257 melanoma
UACC-62 melanoma = tested on: UACC-62 melanoma
UO-31 renal = tested on: UO-31 renal
HL-60(TB) leukemia = tested on: HL-60(TB) leukemia
NCI-H522 lung = tested on: NCI-H522 lung
RPMI-8226 leukemia = tested on: RPMI-8226 leukemia
RXF 393 renal = tested on: RXF 393 renal
SF-268 CNS = tested on: SF-268 CNS
SK-OV-3 ovarian = tested on: SK-OV-3 ovarian

Measured: TGI

Cc1ccc(Cc2n[nH]c(=O)n2N2C(=O)c3ccccc3C2=O)cc1
> 100 µM: 786-0 renal | A498 renal | A549 NSCLC | ACHN renal | BT-549 breast | CAKI-1 renal | CCRF-CEM leukemia | COLO 205 colon | DU-145 prostate | EKVX NSCLC | HCC-2998 colon | HCT-116 colon | HCT-15 colon | HOP-62 NSCLC | HOP-92 NSCLC | HS 578T breast | HT29 colon | IGROV1 ovarian | K-562 leukemia | KM12 colon | LOX IMVI melanoma | M14 melanoma | MALME-3M melanoma | MCF7 breast | MDA-MB-231 breast | MDA-MB-435 | MDA-N | MOLT-4 leukemia | NCI-H226 lung | NCI-H23 lung | NCI-H460 lung | NCI/ADR-RES ovarian | OVCAR-3 ovarian | OVCAR-4 ovarian | OVCAR-5 ovarian | OVCAR-8 ovarian | PC-3 prostate | SF-295 CNS | SF-539 CNS | SK-MEL-2 melanoma | SK-MEL-28 melanoma | SK-MEL-5 melanoma | SN12C renal | SNB-19 CNS | SNB-75 CNS | SR leukemia | SW-620 colon | T-47D breast | TK-10 renal | U251 CNS | UACC-257 melanoma | UACC-62 melanoma | UO-31 renal

COc1cc2nc3n(c(=O)c2cc1OC)CCCCC3
> 100 µM: 786-0 renal | A498 renal | A549 NSCLC | ACHN renal | BT-549 breast | CAKI-1 renal | CCRF-CEM leukemia | COLO 205 colon | DU-145 prostate | EKVX NSCLC | HCT-116 colon | HCT-15 colon | HL-60(TB) leukemia | HOP-62 NSCLC | HOP-92 NSCLC | HS 578T breast | HT29 colon | IGROV1 ovarian | K-562 leukemia | KM12 colon | LOX IMVI melanoma | M14 melanoma | MALME-3M melanoma | MCF7 breast | MDA-MB-231 breast | MDA-MB-435 | MDA-N | MOLT-4 leukemia | NCI-H226 lung | NCI-H23 lung | NCI-H460 lung | NCI-H522 lung | NCI/ADR-RES ovarian | OVCAR-3 ovarian | OVCAR-4 ovarian | OVCAR-5 ovarian | OVCAR-8 ovarian | PC-3 prostate | RPMI-8226 leukemia | RXF 393 renal | SF-268 CNS | SF-295 CNS | SK-MEL-2 melanoma | SK-MEL-28 melanoma | SK-MEL-5 melanoma | SK-OV-3 ovarian | SN12C renal | SNB-75 CNS | SR leukemia | SW-620 colon | T-47D breast | TK-10 renal | U251 CNS | UACC-257 melanoma | UACC-62 melanoma | UO-31 renal
